{
  "source": "PubChem BioAssay (NCI)",
  "assay_in_all_cases": "growth of human tumour cells (NCI), 48 h",
  "key": {"786-0 renal": {"tested_on": "786-0 renal"}, "A549 NSCLC": {"tested_on": "A549 NSCLC"}, "ACHN renal": {"tested_on": "ACHN renal"}, "BT-549 breast": {"tested_on": "BT-549 breast"}, "CAKI-1 renal": {"tested_on": "CAKI-1 renal"}, "CCRF-CEM leukemia": {"tested_on": "CCRF-CEM leukemia"}, "COLO 205 colon": {"tested_on": "COLO 205 colon"}, "DU-145 prostate": {"tested_on": "DU-145 prostate"}, "EKVX NSCLC": {"tested_on": "EKVX NSCLC"}, "HCT-116 colon": {"tested_on": "HCT-116 colon"}, "HCT-15 colon": {"tested_on": "HCT-15 colon"}, "HL-60(TB) leukemia": {"tested_on": "HL-60(TB) leukemia"}, "HOP-62 NSCLC": {"tested_on": "HOP-62 NSCLC"}, "HOP-92 NSCLC": {"tested_on": "HOP-92 NSCLC"}, "HS 578T breast": {"tested_on": "HS 578T breast"}, "HT29 colon": {"tested_on": "HT29 colon"}, "IGROV1 ovarian": {"tested_on": "IGROV1 ovarian"}, "K-562 leukemia": {"tested_on": "K-562 leukemia"}, "KM12 colon": {"tested_on": "KM12 colon"}, "M14 melanoma": {"tested_on": "M14 melanoma"}, "MALME-3M melanoma": {"tested_on": "MALME-3M melanoma"}, "MCF7 breast": {"tested_on": "MCF7 breast"}, "MDA-MB-231 breast": {"tested_on": "MDA-MB-231 breast"}, "MDA-MB-435": {"tested_on": "MDA-MB-435"}, "MOLT-4 leukemia": {"tested_on": "MOLT-4 leukemia"}, "NCI-H23 lung": {"tested_on": "NCI-H23 lung"}, "NCI-H460 lung": {"tested_on": "NCI-H460 lung"}, "NCI-H522 lung": {"tested_on": "NCI-H522 lung"}, "NCI/ADR-RES ovarian": {"tested_on": "NCI/ADR-RES ovarian"}, "OVCAR-3 ovarian": {"tested_on": "OVCAR-3 ovarian"}, "OVCAR-5 ovarian": {"tested_on": "OVCAR-5 ovarian"}, "OVCAR-8 ovarian": {"tested_on": "OVCAR-8 ovarian"}, "PC-3 prostate": {"tested_on": "PC-3 prostate"}, "RPMI-8226 leukemia": {"tested_on": "RPMI-8226 leukemia"}, "SF-268 CNS": {"tested_on": "SF-268 CNS"}, "SF-295 CNS": {"tested_on": "SF-295 CNS"}, "SF-539 CNS": {"tested_on": "SF-539 CNS"}, "SK-MEL-2 melanoma": {"tested_on": "SK-MEL-2 melanoma"}, "SK-MEL-5 melanoma": {"tested_on": "SK-MEL-5 melanoma"}, "SK-OV-3 ovarian": {"tested_on": "SK-OV-3 ovarian"}, "SN12C renal": {"tested_on": "SN12C renal"}, "SNB-19 CNS": {"tested_on": "SNB-19 CNS"}, "SR leukemia": {"tested_on": "SR leukemia"}, "SW-620 colon": {"tested_on": "SW-620 colon"}, "T-47D breast": {"tested_on": "T-47D breast"}, "TK-10 renal": {"tested_on": "TK-10 renal"}, "U251 CNS": {"tested_on": "U251 CNS"}, "UACC-257 melanoma": {"tested_on": "UACC-257 melanoma"}, "UACC-62 melanoma": {"tested_on": "UACC-62 melanoma"}, "UO-31 renal": {"tested_on": "UO-31 renal"}},
  "note": "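These data come from cells grown in 96-well plates and exposed to compound for 48 hours at five concentrations. TGI marks complete inhibition of growth.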",
  "data": [
    {"compound": "c1ccc2c(c1)SC1=Nc3sc4ccccc4[n+]3CN12", "values": [
      {"measurement": "TGI", "setting": "786-0 renal", "result": 83.7, "unit": "µM"},
      {"measurement": "TGI", "setting": "A549 NSCLC", "result": 25.5, "unit": "µM"},
      {"measurement": "TGI", "setting": "ACHN renal", "result": "> 100", "unit": "µM"},
      {"measurement": "TGI", "setting": "BT-549 breast", "result": "> 100", "unit": "µM"},
      {"measurement": "TGI", "setting": "CAKI-1 renal", "result": 42.4, "unit": "µM"},
      {"measurement": "TGI", "setting": "CCRF-CEM leukemia", "result": "> 100", "unit": "µM"},
      {"measurement": "TGI", "setting": "COLO 205 colon", "result": 10.9, "unit": "µM"},
      {"measurement": "TGI", "setting": "DU-145 prostate", "result": "> 100", "unit": "µM"},
      {"measurement": "TGI", "setting": "EKVX NSCLC", "result": 53.5, "unit": "µM"},
      {"measurement": "TGI", "setting": "HCT-116 colon", "result": "> 100", "unit": "µM"},
      {"measurement": "TGI", "setting": "HCT-15 colon", "result": "> 100", "unit": "µM"},
      {"measurement": "TGI", "setting": "HL-60(TB) leukemia", "result": 82.3, "unit": "µM"},
      {"measurement": "TGI", "setting": "HOP-62 NSCLC", "result": "> 100", "unit": "µM"},
      {"measurement": "TGI", "setting": "HOP-92 NSCLC", "result": 47.5, "unit": "µM"},
      {"measurement": "TGI", "setting": "HS 578T breast", "result": 67.9, "unit": "µM"},
      {"measurement": "TGI", "setting": "HT29 colon", "result": 37.7, "unit": "µM"},
      {"measurement": "TGI", "setting": "IGROV1 ovarian", "result": 46.3, "unit": "µM"},
      {"measurement": "TGI", "setting": "K-562 leukemia", "result": 81.6, "unit": "µM"},
      {"measurement": "TGI", "setting": "KM12 colon", "result": 29.3, "unit": "µM"},
      {"measurement": "TGI", "setting": "M14 melanoma", "result": 66.2, "unit": "µM"},
      {"measurement": "TGI", "setting": "MALME-3M melanoma", "result": 37.6, "unit": "µM"},
      {"measurement": "TGI", "setting": "MCF7 breast", "result": 42.9, "unit": "µM"},
      {"measurement": "TGI", "setting": "MDA-MB-231 breast", "result": 49.2, "unit": "µM"},
      {"measurement": "TGI", "setting": "MDA-MB-435", "result": 49.5, "unit": "µM"},
      {"measurement": "TGI", "setting": "MOLT-4 leukemia", "result": 39, "unit": "µM"},
      {"measurement": "TGI", "setting": "NCI-H23 lung", "result": 59.8, "unit": "µM"},
      {"measurement": "TGI", "setting": "NCI-H460 lung", "result": 44.1, "unit": "µM"},
      {"measurement": "TGI", "setting": "NCI-H522 lung", "result": 9.03, "unit": "µM"},
      {"measurement": "TGI", "setting": "NCI/ADR-RES ovarian", "result": "> 100", "unit": "µM"},
      {"measurement": "TGI", "setting": "OVCAR-3 ovarian", "result": 11.7, "unit": "µM"},
      {"measurement": "TGI", "setting": "OVCAR-5 ovarian", "result": 71.1, "unit": "µM"},
      {"measurement": "TGI", "setting": "OVCAR-8 ovarian", "result": "> 100", "unit": "µM"},
      {"measurement": "TGI", "setting": "PC-3 prostate", "result": "> 100", "unit": "µM"},
      {"measurement": "TGI", "setting": "RPMI-8226 leukemia", "result": 59.6, "unit": "µM"},
      {"measurement": "TGI", "setting": "SF-268 CNS", "result": 49.7, "unit": "µM"},
      {"measurement": "TGI", "setting": "SF-295 CNS", "result": "> 100", "unit": "µM"},
      {"measurement": "TGI", "setting": "SF-539 CNS", "result": 69, "unit": "µM"},
      {"measurement": "TGI", "setting": "SK-MEL-2 melanoma", "result": 28.7, "unit": "µM"},
      {"measurement": "TGI", "setting": "SK-MEL-5 melanoma", "result": 10.9, "unit": "µM"},
      {"measurement": "TGI", "setting": "SK-OV-3 ovarian", "result": 66.8, "unit": "µM"},
      {"measurement": "TGI", "setting": "SN12C renal", "result": 71.1, "unit": "µM"},
      {"measurement": "TGI", "setting": "SNB-19 CNS", "result": "> 100", "unit": "µM"},
      {"measurement": "TGI", "setting": "SR leukemia", "result": 56.8, "unit": "µM"},
      {"measurement": "TGI", "setting": "SW-620 colon", "result": "> 100", "unit": "µM"},
      {"measurement": "TGI", "setting": "T-47D breast", "result": 78, "unit": "µM"},
      {"measurement": "TGI", "setting": "TK-10 renal", "result": 76.6, "unit": "µM"},
      {"measurement": "TGI", "setting": "U251 CNS", "result": 21.6, "unit": "µM"},
      {"measurement": "TGI", "setting": "UACC-257 melanoma", "result": "> 100", "unit": "µM"},
      {"measurement": "TGI", "setting": "UACC-62 melanoma", "result": 45.1, "unit": "µM"},
      {"measurement": "TGI", "setting": "UO-31 renal", "result": "> 100", "unit": "µM"}
    ]}
  ]
}
